# Results reported in patent publication US6653460B1 (priority 1996, dated 2003).
# How the values were obtained:
# [1] = system: calcium current (carried by barium) in neurohypophysial terminals; assay type: cell-based, rat
# [2] = target: T1, class E calcium channels (192C cells) (Homo sapiens, UniProt Q15878); assay type: cell-based
# T1 construct: expressed in transfected cells; host or cells: HEK 293 (192C cells)
# T1 sequence (Q15878 whole entry): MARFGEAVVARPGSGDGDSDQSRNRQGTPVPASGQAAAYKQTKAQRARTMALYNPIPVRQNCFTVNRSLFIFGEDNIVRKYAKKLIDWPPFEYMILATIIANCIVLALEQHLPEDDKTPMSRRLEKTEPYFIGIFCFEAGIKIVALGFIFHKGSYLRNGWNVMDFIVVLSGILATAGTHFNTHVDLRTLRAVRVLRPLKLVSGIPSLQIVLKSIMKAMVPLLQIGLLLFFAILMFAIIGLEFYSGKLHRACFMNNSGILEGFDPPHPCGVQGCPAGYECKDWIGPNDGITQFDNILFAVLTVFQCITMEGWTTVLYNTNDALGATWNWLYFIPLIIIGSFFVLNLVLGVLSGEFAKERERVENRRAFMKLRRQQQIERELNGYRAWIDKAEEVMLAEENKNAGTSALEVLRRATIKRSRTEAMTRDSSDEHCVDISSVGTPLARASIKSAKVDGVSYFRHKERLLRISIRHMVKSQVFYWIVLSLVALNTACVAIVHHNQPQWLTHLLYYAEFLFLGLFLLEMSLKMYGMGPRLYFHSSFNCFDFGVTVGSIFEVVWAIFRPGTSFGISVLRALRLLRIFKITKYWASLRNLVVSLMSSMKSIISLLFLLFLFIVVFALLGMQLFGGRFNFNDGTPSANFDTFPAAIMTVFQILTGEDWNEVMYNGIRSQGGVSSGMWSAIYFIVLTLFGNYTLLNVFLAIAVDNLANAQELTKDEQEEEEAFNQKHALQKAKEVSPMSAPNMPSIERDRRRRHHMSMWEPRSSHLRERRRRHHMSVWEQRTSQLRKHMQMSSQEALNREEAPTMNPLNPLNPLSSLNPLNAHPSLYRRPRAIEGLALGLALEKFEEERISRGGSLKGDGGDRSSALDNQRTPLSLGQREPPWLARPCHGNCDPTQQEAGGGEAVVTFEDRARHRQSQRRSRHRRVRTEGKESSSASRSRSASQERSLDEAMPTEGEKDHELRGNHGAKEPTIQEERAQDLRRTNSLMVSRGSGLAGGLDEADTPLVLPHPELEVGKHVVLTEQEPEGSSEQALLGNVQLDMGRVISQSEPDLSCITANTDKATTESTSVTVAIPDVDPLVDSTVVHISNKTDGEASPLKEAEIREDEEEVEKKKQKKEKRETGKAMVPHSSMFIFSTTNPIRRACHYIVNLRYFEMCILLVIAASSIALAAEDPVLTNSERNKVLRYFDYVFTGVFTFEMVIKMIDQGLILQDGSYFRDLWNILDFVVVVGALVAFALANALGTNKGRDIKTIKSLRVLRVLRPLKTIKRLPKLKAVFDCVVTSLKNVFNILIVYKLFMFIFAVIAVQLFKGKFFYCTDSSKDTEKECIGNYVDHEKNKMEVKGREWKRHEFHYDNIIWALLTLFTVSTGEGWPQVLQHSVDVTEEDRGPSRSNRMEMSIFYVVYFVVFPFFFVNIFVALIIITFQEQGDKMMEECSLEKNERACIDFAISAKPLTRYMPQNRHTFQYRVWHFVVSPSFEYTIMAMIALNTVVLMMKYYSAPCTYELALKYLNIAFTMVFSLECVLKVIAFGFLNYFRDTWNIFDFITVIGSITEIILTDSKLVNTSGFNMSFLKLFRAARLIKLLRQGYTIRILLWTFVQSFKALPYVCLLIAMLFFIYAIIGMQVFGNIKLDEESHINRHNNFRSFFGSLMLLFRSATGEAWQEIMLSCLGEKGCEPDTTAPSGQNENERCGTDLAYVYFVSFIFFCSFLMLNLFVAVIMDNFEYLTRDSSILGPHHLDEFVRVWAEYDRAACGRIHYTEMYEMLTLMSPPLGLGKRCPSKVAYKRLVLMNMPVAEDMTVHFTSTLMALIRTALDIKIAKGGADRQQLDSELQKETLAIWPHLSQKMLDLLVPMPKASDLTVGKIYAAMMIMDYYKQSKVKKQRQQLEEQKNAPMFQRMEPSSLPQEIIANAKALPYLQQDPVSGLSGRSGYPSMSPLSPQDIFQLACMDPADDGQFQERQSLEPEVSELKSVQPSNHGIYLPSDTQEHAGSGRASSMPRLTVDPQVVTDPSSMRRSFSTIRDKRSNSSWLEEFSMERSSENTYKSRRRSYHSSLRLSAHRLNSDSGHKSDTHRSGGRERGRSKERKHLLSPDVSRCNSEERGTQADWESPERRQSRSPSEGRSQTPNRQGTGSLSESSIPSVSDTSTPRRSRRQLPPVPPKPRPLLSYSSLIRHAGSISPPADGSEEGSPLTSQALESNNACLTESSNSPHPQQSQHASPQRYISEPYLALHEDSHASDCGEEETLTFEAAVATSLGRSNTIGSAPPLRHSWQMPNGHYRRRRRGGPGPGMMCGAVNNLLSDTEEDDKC
compound,measurement,setting,value
CSCC[C@@H]1NC(=O)[C@H](CC(C)C)NC(=O)[C@H](CCCNC(=N)N)NC(=O)[C@H](CO)NC(=O)[C@@H]2CSSC[C@@H]3NC(=O)[C@H](CO)NC(=O)CNC(=O)[C@H]([C@@H](C)O)NC(=O)[C@H](CSSC[C@H](N)C(=O)N[C@@H](CCCCN)C(=O)NCC(=O)N[C@@H](CCCCN)C(=O)NCC(=O)N[C@@H](C)C(=O)N[C@@H](CCCCN)C(=O)N2)NC(=O)[C@H](CSSC[C@@H](C(N)=O)NC(=O)[C@H](CCCCN)NC(=O)CNC(=O)[C@H](CO)NC(=O)[C@H](CCCNC(=N)N)NC3=O)NC(=O)[C@H](CC(=O)O)NC(=O)[C@H](Cc2ccc(O)cc2)NC1=O [SNX-111],block of current remaining after nicardipine,[1],blocked part but not all of the remaining current
same,sensitivity of depolarization evoked increase in internal calcium,[2],resistant
